Experimental data from article PMC7830917, “PEG-BHD1028 Peptide Regulates Insulin Resistance and Fatty Acid β-Oxidation, and Mitochondrial Biogenesis by Binding to Two Heterogeneous Binding Sites of Adiponectin Receptors, AdipoR1 and AdipoR2” (International Journal of Molecular Sciences, 2021).

Key:
[1] = test system: insulin-resistant C2C12 myotubes; experiment: 2-Deoxy-D-glucose uptake, insulin-resistant C2C12 myotubes; format: cell-based, mouse; settings: 0.6 mM palmitate; 100 nM insulin
Protocol: (§1) Skeletal muscle is the primary site of glucose metabolism, accounting for approximately […] of the entire body’s glucose uptake in the presence of insulin [22]. […] The effect of PEG-BHD1028 on glucose uptake in insulin-resistant C2C12 skeletal muscle cells was evaluated. To induce insulin resistance, differentiated C2C12 myotubes were treated with 0.6 mM palmitate and incubated for 16 h and then treated with 100 nM insulin and PEG-BHD1028 at concentrations of 100 and 500 nM for 30 min.
(§2) The 2-DG uptake of C2C12 cells was measured using the Glucose Uptake Assay Kit (Colorimetric, Ab136955, Abcam, Cambridge, UK) according to the manufacturer’s instruction. Palmitate to induce insulin resistance was prepared with minor modifications from the previous description. Briefly, palmitate was dissolved in 0.1 M NaOH to a concentration of 20 mM by heating at 75 °C and the dissolved solution was then diluted with 5% fatty acid-free bovine serum at a stock solution of 6 mM at 55 °C. Cells were treated with 0.6 mM palmitate overnight. The fixed cells were washed three times with DPBS, followed by incubation in Krebs-Ringer-Phosphate-Hepes (KRPH) buffer containing 2% fatty acid free-BSA for 40 min. […] Absorbance was measured using an Epoch microplate reader (BioTek Instruments, Inc., Winooski, VT, USA) at 412 nm.

C2C12 myotubes = experiment: 2-Deoxy-D-glucose uptake, non-resistant C2C12 myotubes; format: cell-based, mouse; settings: 100 nM insulin
Protocol: as §1, §2

diabetic swine = settings: cited from earlier work
Excerpt: It has also been well accepted that adiponectin alleviates insulin resistance, and adiponectin deficiency leads to abnormal glucose metabolism. Thus, insulin resistance has been recognized as the most fundamental root cause of type 2 diabetes mellitus, and the concentration of circulating adiponectin is negatively correlated with insulin resistance. […] Recent studies also have shown that p38 MAPK acts as an essential mediator in regulating adiponectin-induced ...

[2] = via AMPK, after binding to AdipoR1 and AdipoR2 in the hypothalamus; cited from earlier work
Excerpt: Besides the effect on the amelioration of insulin resistance, it has been widely known that adiponectin induces weight loss through fatty acid oxidation and energy expenditure. At the molecular level, adiponectin activates 5’ AMP-activated protein kinase (AMPK) and peroxisome proliferator-activated receptor alpha (PPARα) signal pathways. AMPK pathway ultimately enhances mitochondrial biogenesis and fatty acid β-oxidation, and the activated PPARα promotes uptake, utilization, and catabolism of fatty acids by upregulating the genes involved in fatty acid transport, fatty acid-binding ...

Molecule | glucose uptake, insulin-resistant cells, insulin alone [1] | glucose uptake, non-resistant cells, insulin alone (C2C12 myotubes) | glucose metabolism / insulin sensitivity (diabetic swine) | appetite [2]
insulin: insulin | not observed | significantly increased | – | –
adiponectin: hormone, endogenous ligand of AdipoR1 and AdipoR2 (protein, UniProt Q15848 19-244, looked up) Adiponectin: ETTTQGPGVLLPLPKGACTGWMAGIPGHPGHNGAPGRDGRDGTPGEKGEKGDPGLIGPKGDIGETGVPGAEGPRGFPGIQGRKGEPGEGAYVYRSAFSVGLETYVTIPNMPIRFTKIFYNQQNHYDGSTGKFHCNIPGLYYFAYHITVYMKDVKVSLFKKDKAMLFTYDQYQENNVDQASGSVLLHLEVGDQVWLQVYGEGERNGLYADNDNDSTFTGFLLYHDTN | – | – | enhanced glucose metabolism by improving insulin sensitivity | induced appetite
